Data published in ChEMBL document CHEMBL4602739, “Design and Synthesis of a Trifunctional Molecular System "Programmed" to Block Epidermal Growth Factor Receptor Tyrosine Kinase, Induce High Levels of DNA Damage, and Inhibit the DNA Repair Enzyme (Poly(ADP-ribose) Polymerase) in Prostate Cancer Cells” (J Med Chem, 2020).
One block for each molecule: values may come before it. The source made the active and inactive calls. The calls are words filed in the database; no cut-off is given here.

Experiments:
PC-3 [1] = test: Inhibition of PARP in human PC3 cells assessed as reduction in auto-PARylation at 10 uM measured after 48 hrs by Western blot analysis; assay type: cell-based
CWR22R [2] = test: Inhibition of PARP in human 22Rv1 cells assessed as reduction in auto-PARylation at 10 uM measured after 48 hrs by Western blot analysis; assay type: cell-based
CWR22R [3] = test: Growth inhibition of human 22Rv1 cells after 5 days by SRB assay; assay type: functional, cell-based; details: 22Rv1, 120 h
PC-3 [4] = test: Growth inhibition of human PC3 cells after 5 days by SRB assay; assay type: functional, cell-based; details: PC-3, 120 h
DU-145 = test: Growth inhibition of human DU145 cells after 5 days by SRB assay; assay type: functional, cell-based; details: DU-145, 120 h
[5] = biological target: T1, Epidermal growth factor receptor (Homo sapiens, UniProt P00533); test: Inhibition of EGFR in human PC3 cells assessed as reduction in EGF-stimulated EGFR phosphorylation preincubated for 2 hrs followed by EGF stimulation and measured after 30 mins by Western blot analysis; assay type: cell-based; details: PC-3
[6] = biological target: T1, Epidermal growth factor receptor; test: Inhibition of EGFR in human PC3 cells assessed as reduction in EGF-stimulated EGFR phosphorylation at <= 1 uM preincubated for 2 hrs followed by EGF stimulation and measured after 30 mins by Western blot analysis relative to control; assay type: cell-based; details: PC-3
[7] = biological target: T1, Epidermal growth factor receptor; test: Inhibition of EGFR in human 22Rv1 cells assessed as reduction in EGF-stimulated EGFR phosphorylation preincubated for 2 hrs followed by EGF stimulation and measured after 30 mins by Western blot analysis; assay type: cell-based; details: CWR22R
[8] = biological target: T1, Epidermal growth factor receptor; test: Inhibition of EGFR in human 22Rv1 cells assessed as reduction in EGF-stimulated EGFR phosphorylation at <= 1 uM preincubated for 2 hrs followed by EGF stimulation and measured after 30 mins by Western blot analysis relative to control; assay type: cell-based; details: CWR22R
[9] = biological target: T1, Epidermal growth factor receptor; test: Inhibition of recombinant human N-terminal GST-tagged EGFR (668 to end residues) expressed in baculovirus infected Sf9 insect cells assessed as reduction in […] EGFR phosphorylation […] by TMB peroxidase substrate based assay
[10] = biological target: T1, Epidermal growth factor receptor; test: Inhibition of EGFR in human PC3 cells assessed as reduction in EGF-stimulated ERK phosphorylation at 0.1 to 100 uM preincubated for 2 hrs followed by EGF stimulation and measured after 30 mins by Western blot analysis; assay type: cell-based; details: PC-3
[11] = biological target: T1, Epidermal growth factor receptor; test: Inhibition of EGFR in human PC3 cells assessed as reduction in EGF-stimulated AKT phosphorylation at 0.1 to 100 uM preincubated for 2 hrs followed by EGF stimulation and measured after 30 mins by Western blot analysis; assay type: cell-based; details: PC-3
[12] = Selectivity ratio of IC50 for EGFR (unknown origin) transfected in mouse NIH/3T3 cells to IC50 for EGFR in mouse NIH/3T3 cells; assay type: cell-based
DNA [13] = test: Induction of DNA damage in human PC3 cells measured after 2 to 24 hrs by alkaline commet assay; assay type: cell-based; details: PC-3
DNA [14] = test: Induction of DNA damage in human 22Rv1 cells measured after 2 to 24 hrs by alkaline commet assay; assay type: cell-based; details: CWR22R
DNA [15] = test: Induction of DNA damage in human PC3 cells at 12.5 uM measured after 2 to 24 hrs by alkaline commet assay relative to busulfan; assay type: cell-based; details: PC-3
DNA [16] = test: Induction of DNA damage in human 22Rv1 cells at 12.5 measured after 2 to 24 hrs by alkaline commet assay relative to busulfan; assay type: cell-based; details: CWR22R
DNA [17] = test: Induction of DNA damage in human PC3 cells assessed as increase in gammaH2AX phosphorylation up to 20 uM measured after 48 hrs by Western blot analysis; assay type: cell-based; details: PC-3
DNA [18] = test: Induction of DNA damage in human 22Rv1 cells assessed as increase in gammaH2AX phosphorylation up to 20 uM measured after 48 hrs by Western blot analysis; assay type: cell-based; details: CWR22R
PC-3 [19] = test: Inhibition of PARP in human PC3 cells assessed as reduction in auto-PARylation up to 20 uM measured after 48 hrs by Western blot analysis; assay type: cell-based
CWR22R [20] = test: Inhibition of PARP in human 22Rv1 cells assessed as reduction in auto-PARylation up to 20 uM measured after 48 hrs by Western blot analysis; assay type: cell-based
Homo sapiens = organism: Homo sapiens; test: Selectivity ratio of IC50 for BRCA mutant (unknown origin) expressed in Cricetulus griseus VCA cells to IC50 for BRCA (unknown origin) expressed in Cricetulus griseus VCA cells; assay type: cell-based
[21] = Drug uptake in human 22Rv1 cells at 25 uM measured up to 6 hrs by LC-MS/MS analysis; assay type: ADME, cell-based; details: cwr22r
[22] = Drug uptake in human 22Rv1 cells assessed as drug accumulation in perinuclear region at 10 uM measured after 2 hrs by confocal laser scanning microscopic analysis; assay type: ADME, cell-based; details: cwr22r
[23] = Induction of 2'-Deoxyguanosine depurination at 0.1 mM measured after 24 hrs by LC-MS analysis; details: 100 µM

T1 sequence (P00533 whole entry): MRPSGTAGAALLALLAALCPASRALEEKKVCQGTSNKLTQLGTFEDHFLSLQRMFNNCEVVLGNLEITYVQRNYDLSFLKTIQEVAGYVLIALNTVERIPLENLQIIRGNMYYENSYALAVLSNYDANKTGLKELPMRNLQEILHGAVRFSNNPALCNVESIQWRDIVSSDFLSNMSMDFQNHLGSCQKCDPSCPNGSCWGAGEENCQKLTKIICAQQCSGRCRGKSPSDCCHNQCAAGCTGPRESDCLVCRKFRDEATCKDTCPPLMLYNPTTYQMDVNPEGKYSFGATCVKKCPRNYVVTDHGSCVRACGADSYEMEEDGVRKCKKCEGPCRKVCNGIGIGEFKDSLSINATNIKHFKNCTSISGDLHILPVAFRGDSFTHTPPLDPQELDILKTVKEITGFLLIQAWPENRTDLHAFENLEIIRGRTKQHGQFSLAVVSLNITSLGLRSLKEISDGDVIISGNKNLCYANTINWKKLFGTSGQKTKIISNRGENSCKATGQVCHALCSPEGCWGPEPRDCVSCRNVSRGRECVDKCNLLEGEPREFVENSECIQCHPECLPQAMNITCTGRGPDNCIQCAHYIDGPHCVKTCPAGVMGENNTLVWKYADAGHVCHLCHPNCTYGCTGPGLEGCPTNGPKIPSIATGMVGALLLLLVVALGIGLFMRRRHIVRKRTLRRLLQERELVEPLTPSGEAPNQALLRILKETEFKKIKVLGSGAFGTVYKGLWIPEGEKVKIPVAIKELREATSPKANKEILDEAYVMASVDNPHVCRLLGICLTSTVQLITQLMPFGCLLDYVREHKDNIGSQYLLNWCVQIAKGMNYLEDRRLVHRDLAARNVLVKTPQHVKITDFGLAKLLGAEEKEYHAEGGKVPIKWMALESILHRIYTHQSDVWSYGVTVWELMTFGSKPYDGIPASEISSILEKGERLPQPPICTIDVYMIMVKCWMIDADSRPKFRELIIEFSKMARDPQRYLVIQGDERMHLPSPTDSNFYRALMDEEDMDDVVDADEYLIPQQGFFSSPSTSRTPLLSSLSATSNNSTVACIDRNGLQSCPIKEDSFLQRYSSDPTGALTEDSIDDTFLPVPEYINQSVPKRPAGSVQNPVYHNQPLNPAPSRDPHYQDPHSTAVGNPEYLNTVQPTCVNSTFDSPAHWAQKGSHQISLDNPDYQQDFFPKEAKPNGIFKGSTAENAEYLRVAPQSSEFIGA

- IC50 (PC-3 [4]): 20.6 µM
- IC50 (DU-145): 17.7 µM
SMILES: O=C(c1cc(Cc2n[nH]c(=O)c3ccccc23)ccc1F)N1CCN(C(=O)C2CC2)CC1 [OLAPARIB]
- inhibition (PC-3 [1]): Active
- inhibition (CWR22R [2]): Active
- IC50 (CWR22R [3]): 33.8 µM

- IC50 (PC-3 [4]): 36.2 µM
- IC50 (DU-145): 25.8 µM
SMILES: CS(=O)(=O)OCCCCOS(C)(=O)=O [BUSULFAN]
- IC50 (CWR22R [3]): 24.3 µM

- inhibition [5]: Dose-dependent effect
- inhibition [6]: 34 to 45%
- inhibition [7]: Dose-dependent effect
- inhibition [8]: 34 to 45%
- IC50 [9]: 0.326 µM
- inhibition [10]: Active
- inhibition [11]: Active
- IC50 (PC-3 [4]): 3 µM
- IC50 (DU-145): 3.2 µM
- Drug uptake [21]: Active
- Drug uptake [22]: Active
- Drug metabolism [23]: Metabolite_Detected
SMILES: CN(CCOS(=O)(=O)CCc1cn(CCCC(=O)N2CCN(C(=O)c3cc(Cc4n[nH]c(=O)c5ccccc45)ccc3F)CC2)nn1)c1ccc2ncnc(Nc3cccc(Br)c3)c2c1
- Ratio IC50 [12]: 7
- Activity (DNA [13]): Dose-dependent effect
- Activity (DNA [14]): Dose-dependent effect
- fold change (FC) (DNA [15]): 3 to 6
- fold change (FC) (DNA [16]): 3 to 6
- Activity (DNA [17]): Active
- Activity (DNA [18]): Active
- inhibition (PC-3 [19]): Active
- inhibition (CWR22R [20]): Active
- Ratio IC50 (Homo sapiens): 3 to 4
- IC50 (CWR22R [3]): 1.9 µM
